The values that follow come from patent publication US9970945B2, “Compositions, methods, and assays using proteo-liposome-transfected oocytes for analyzing the structure, function, and activity of membrane proteins” (Georgia State University Research Foundation, Inc., priority 2013, dated 2018).

For one assay, the target named is T1, EcSecA (Escherichia coli, UniProt P10408).
T1 construct: made in house; host or cells: E. coli BL21(λDE3)/pT7-SecA
Type of assay: cell-based, E. coli. Conditions: channel activity assay.

Another assay concerns the target T2, Cx26 (Homo sapiens, UniProt P29033).
T2 construct: His6 (C); made in house; host or cells: insect Sf9 cells, Bac-to-Bac baculovirus system
Briefly: Cx26-proteoliposome hemi-channel activity in Xenopus oocytes. The format is cell-based. The method, then:
Voltage Clamp was performed to measure the opening of protein conducting channels. When the channel on the cell membrane was opened, ions pass through the membrane and generate the ionic current. Thus, the recording of ionic current could also mean the opening of the protein conducting channel. Currents through the plasma membranes of oocytes were measured after the oocytes were injected with tested materials. The cells were place in a recording chamber (BSC-HT, Medical System, Greenvale, N.Y.) on a supporting nylon mesh, so that the perfusion solution bathed both the top and the bottom surface of the oocytes. Two electrode voltage clamping was performed using an amplifier (Geneclamp 500, Axon instruments Inc., Foster City, Calif.) at room temperature (23-25° C.). Cells were impaled using electrodes filled with 3 M KCl. One of the electrode (1.0-2.0 MΩ) used for voltage recording was connected to the HS-2×1 L headstage (input resistance, […]), and the other electrode (0.3-0.6 MΩ) was used for current recording to the HS-2×10 MG headstage (maximum current, 130 μA). The electrode was connected through a silver wire that was chloridized freshly for each experiment. Oocytes were used for further experiments only if their leak currents measured as the difference before and after a leak subtraction were less than 10% of the peak currents. The leak subtraction was not applied for data acquisition and analysis. Current records were low-pass filtered (Bessel, 4-pole filter, 3 db at 5 kHz), digitized at 5 kHz (12 but resolution), and analyzed using pClamp6 (Axon Instruments). The highest and lowest records were eliminated, and then the data are presented as mean±S.E. (standard error; n, number of oocytes). The expression rates for each injection sample were also collected as a record to determine the channel activity efficiency.
The E. coli liposomes treated with detergent were mixed with purified Cx26 protein at 10:1 ratio. Then the mixture was dialyzed in dialysis solution (0.25 M Sucrose, 0.4 M KOAC, 20 mM triethanolamine hydrocholoride pH7.5, 1.5 mM Mg(OAC)2 and 1 mM EDTA) at 4° C. for 15-18 hours to reconstitute the Cx-26-proteoliposomes.
10 ng reconstituted Cx26-proteoliposomes was mixed with or without EGTA or CaCl2 and injected into oocytes. The injected oocytes were incubated at 23° C. for 30 mins with 1.8 mM CaCl2 to suppress the bubbling. Recording bath solution was 90K (90 mM KCl, 5 mM HEPES, 3 mM MgCl2) without Ca^2+. For Ca^2+ inhibition, the CaCl2 was added in the extracellular recording bath solution during the recording.

The next assay concerns the target T3, PaSecA (Pseudomonas aeruginosa, UniProt Q9LCT3).
T3 construct: made in house; host or cells: E. coli BL21.19
Nature of the assay: SecA-liposomes ion-channel activity in Xenopus oocytes (two-electrode voltage clamp). The format is cell-based, P. aeruginosa. Conditions: injected PaSecA-liposomes in oocytes. On the technique in general: Two-electrode voltage clamp is typically applied to oocytes expressing channels or transporters.

The target in assay [1] is T4, E. coli SecA translocation ATPase (Escherichia coli, UniProt P10408).
T4 construct: made in house; host or cells: E. coli BL21(λDE3)/pT7-SecA (SecA); E. coli membranes supply SecYEG
T4 sequence (P10408 whole entry): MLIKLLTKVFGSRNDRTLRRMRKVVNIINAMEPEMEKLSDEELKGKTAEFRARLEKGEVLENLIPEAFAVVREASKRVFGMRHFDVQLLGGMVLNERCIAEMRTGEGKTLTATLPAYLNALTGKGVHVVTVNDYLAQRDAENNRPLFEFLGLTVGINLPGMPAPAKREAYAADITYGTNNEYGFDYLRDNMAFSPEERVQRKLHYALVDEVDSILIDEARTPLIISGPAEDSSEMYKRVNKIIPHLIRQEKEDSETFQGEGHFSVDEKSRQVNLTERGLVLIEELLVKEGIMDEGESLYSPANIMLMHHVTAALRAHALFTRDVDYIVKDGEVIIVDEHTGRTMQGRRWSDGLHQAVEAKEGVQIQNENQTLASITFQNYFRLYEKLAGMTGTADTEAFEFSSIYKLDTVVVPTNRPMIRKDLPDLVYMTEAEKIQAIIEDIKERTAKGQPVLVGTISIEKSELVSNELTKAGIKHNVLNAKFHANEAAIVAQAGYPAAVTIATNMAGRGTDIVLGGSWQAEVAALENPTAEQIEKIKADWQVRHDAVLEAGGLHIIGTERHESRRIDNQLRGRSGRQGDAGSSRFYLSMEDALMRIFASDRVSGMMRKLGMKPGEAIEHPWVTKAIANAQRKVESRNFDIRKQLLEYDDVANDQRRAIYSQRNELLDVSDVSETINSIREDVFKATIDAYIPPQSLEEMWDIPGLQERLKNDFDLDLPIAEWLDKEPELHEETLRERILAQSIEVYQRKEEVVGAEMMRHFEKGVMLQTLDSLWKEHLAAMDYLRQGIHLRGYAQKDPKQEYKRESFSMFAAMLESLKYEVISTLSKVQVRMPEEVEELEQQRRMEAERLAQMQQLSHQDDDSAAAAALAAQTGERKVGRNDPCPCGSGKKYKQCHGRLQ
T4 sequence (P0AGA2 whole entry, further chain): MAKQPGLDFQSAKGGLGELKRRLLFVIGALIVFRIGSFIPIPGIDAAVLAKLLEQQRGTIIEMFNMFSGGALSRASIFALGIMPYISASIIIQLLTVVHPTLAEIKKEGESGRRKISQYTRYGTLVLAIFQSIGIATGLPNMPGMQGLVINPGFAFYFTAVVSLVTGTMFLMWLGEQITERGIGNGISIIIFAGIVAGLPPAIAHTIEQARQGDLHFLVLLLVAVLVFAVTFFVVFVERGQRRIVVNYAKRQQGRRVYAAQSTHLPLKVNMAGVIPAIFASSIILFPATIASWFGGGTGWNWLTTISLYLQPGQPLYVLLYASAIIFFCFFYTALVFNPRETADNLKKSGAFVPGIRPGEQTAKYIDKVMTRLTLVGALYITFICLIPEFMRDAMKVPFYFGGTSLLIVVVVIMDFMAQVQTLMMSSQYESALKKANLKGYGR
T4 sequence (P0AG96 whole entry, further chain): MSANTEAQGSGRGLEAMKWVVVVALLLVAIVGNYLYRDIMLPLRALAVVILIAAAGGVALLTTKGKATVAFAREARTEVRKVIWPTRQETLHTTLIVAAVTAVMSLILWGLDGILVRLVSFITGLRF
T4 sequence (P0AG99 whole entry, further chain): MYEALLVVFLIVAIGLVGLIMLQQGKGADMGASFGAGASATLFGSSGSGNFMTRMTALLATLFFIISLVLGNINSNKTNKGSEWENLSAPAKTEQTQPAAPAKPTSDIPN
Nature of the assay: In vitro translocation ATPase inhibition kinetics. The format is biochemical. Conditions: requires SecYEG and precursors.

Assay [2] deals with Soluble SecA intrinsic ATPase (Escherichia coli, UniProt P10408). Nature of the assay: Soluble SecA intrinsic ATPase inhibition kinetics. Type of assay: biochemical. Conditions: data not shown.
Soluble SecA intrinsic ATPase, sequence (P10408 whole entry): as the sequence (P10408 whole entry) above

T1 sequence (P10408 whole entry): as above
T3 sequence (Q9LCT3 whole entry): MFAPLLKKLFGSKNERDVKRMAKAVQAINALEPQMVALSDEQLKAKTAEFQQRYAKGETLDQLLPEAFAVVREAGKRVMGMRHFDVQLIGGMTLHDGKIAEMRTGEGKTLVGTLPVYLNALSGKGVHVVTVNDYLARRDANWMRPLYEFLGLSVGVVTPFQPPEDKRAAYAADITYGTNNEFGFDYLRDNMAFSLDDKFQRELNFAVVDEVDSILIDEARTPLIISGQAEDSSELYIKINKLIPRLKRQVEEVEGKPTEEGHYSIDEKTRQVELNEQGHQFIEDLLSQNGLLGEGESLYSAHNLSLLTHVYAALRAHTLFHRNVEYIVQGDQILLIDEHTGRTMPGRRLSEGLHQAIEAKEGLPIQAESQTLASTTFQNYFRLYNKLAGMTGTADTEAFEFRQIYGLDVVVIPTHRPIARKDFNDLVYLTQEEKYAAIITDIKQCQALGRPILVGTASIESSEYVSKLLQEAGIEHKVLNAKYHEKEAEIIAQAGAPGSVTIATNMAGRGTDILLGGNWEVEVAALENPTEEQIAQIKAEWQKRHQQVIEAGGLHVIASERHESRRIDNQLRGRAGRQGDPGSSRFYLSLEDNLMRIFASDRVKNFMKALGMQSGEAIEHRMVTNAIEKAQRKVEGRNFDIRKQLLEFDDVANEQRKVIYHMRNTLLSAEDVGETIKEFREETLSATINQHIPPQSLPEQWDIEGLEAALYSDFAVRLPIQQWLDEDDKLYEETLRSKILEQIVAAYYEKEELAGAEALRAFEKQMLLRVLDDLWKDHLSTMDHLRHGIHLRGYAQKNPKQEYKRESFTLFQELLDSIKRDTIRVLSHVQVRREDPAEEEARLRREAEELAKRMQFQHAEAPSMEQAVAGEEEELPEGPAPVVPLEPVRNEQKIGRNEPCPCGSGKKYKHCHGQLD

As for `Oc1ccc2c(c1)Oc1cc(O)ccc1C2C1CCCCC1` [22d], the “Potency against EcSecA relative to BsSecA” value on EcSecA is listed as “about 2 fold”.
Take `O=C(O)CN(CCOCCOCCN(CC(=O)O)CC(=O)O)CC(=O)O` [EGTA]: on Cx26 (10 mM EGTA in extracellular recording bath, from 2 μA), the Cx26 channel current stood at 7 μA. Moreover, the “Cx26 hemi-channel activity (current)” value on Cx26 (co-injection with 5 mM EGTA, Cx26-liposomes alone around 2 μA) came to 7 μA.
Turning to `O=C(O)c1c(Cl)c(Cl)c(Cl)c(Cl)c1-c1c2cc(I)c(=O)c(I)c-2oc2c(I)c(O)c(I)cc12` [RB, Rose Bengal], at PaSecA, the “Inhibition kinetics with ATP, channel activity” value is “non-competitive”. In assay [1], the “Inhibition kinetics with ATP” value is “non-competitive”. In addition, the entries for the “Inhibition kinetics with RB” value in assay [2] (high ATP) and in assay [2] (low ATP) were “competitive” and “non-competitive”, respectively.
Consider `[Ca+2].[Cl-].[Cl-]` [CaCl2], for which the Cx26 channel current on Cx26 (30 mM CaCl2 added to same extracellular bath after EGTA, 2 mins incubation) is listed as 1.3 μA. Moreover, the “Effect on Cx26 channel activity” value was “reduced the activity” on Cx26 (CaCl2 co-injected with 5 mM EGTA) and “slightly inhibited” on Cx26 (co-injection with 2 mM CaCl2). Also, the “Half-time of inhibition of Cx26 channel activity” value at Cx26 (CaCl2 in extracellular bath solution) is on record as “about 1 min”.
